From PMC8785688 (Bioorganic & medicinal chemistry, 2021)
Blank lines part the entries; values can stand above or below the molecule they belong to.

Tests used:
h15-LOX-2 [1] = molecular target: T1, h15-LOX-2 (Homo sapiens, UniProt O15296); assay: Lipoxygenase UV-Vis-based IC50 assay, h15-LOX-2; assay type: biochemical
T1 sequence (O15296 1-676): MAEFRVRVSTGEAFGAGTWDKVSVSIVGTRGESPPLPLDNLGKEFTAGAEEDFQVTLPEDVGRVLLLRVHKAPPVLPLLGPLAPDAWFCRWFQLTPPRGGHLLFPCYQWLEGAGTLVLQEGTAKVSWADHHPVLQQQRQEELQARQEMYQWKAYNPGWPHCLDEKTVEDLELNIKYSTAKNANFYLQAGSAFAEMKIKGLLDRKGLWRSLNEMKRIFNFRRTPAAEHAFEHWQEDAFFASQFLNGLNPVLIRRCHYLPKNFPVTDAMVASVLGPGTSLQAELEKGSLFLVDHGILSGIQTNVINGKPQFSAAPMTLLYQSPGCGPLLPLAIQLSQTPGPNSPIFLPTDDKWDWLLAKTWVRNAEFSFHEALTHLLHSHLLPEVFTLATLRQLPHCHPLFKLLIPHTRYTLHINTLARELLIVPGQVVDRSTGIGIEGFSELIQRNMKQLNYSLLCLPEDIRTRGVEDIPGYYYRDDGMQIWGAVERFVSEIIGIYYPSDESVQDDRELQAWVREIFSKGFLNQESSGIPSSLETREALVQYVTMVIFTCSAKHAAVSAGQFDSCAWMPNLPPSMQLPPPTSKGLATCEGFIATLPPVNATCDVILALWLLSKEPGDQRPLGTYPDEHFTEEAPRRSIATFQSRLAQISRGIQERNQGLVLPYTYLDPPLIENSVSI

h15-LOX-2 [2] = molecular target: T1, h15-LOX-2; assay: Steady-state inhibition kinetics of h15-LOX-2; assay type: biochemical; settings: for mode of inhibition: against h15-LOX-2
h15-LOX-2 [3] = molecular target: T1, h15-LOX-2; assay: Study of inhibitors as substrates of h15-LOX-2; assay type: biochemical; settings: 20 μM inhibitor, absence of AA; UV-Vis and RP-HPLC
h15-LOX-2 [4] = molecular target: T1, h15-LOX-2; assay: Hydrogen/deuterium exchange mass spectrometry of h15-LOX-2; settings: 20 μM inhibitor; peptides 173-184 and 184-191 (helix α2); short time scales (< 10 min)
SEC = molecular target: the molecule itself; assay: SEC

Molecule: CCc1ccc(CSc2nccn2-c2ccccc2)cc1 [Inhibitor 327206]
mode of inhibition (h15-LOX-2 [2]): mixed-type
substrate activity with h15-LOX-2 (h15-LOX-2 [3]): not substrates

B1: loop mutant (LM) of human epithelial 15-lipoxygenase-2, Mn2+-substituted (enzyme, UniProt O15296 1-676, looked up)
chain: MAEFRVRVSTGEAFGAGTWDKVSVSIVGTRGESPPLPLDNLGKEFTAGAEEDFQVTLPEDVGRVLLLRVHKAGPLAPDAWFCRWFQLTPPRGGHLLFPCYQWLEGAGTLVLQEGTAKVSWADHHPVLQQQRQEELQARQEMYQWKAYNPGWPHCLDEKTVEDLELNIKYSTAKNANFYLQAGSAFAEMKIKGLLDRKGLWRSLNEMKRIFNFRRTPAAEHAFEHWQEDAFFASQFLNGLNPVLIRRCHYLPKNFPVTDAMVASVLGPGTSLQAELEKGSLFLVDHGILSGIQTNVINGKPQFSAAPMTLLYQSPGCGPLLPLAIQLSQTPGPNSPIFLPTDDKWDWLLAKTWVRNAEFSFHEALTHLLHSHLLPEVFTLATLRQLPHCHPLFKLLIPHTRYTLHINTLARELLIVPGQVVDRSTGIGIEGFSELIQRNMKQLNYSLLCLPEDIRTRGVEDIPGYYYRDDGMQIWGAVERFVSEIIGIYYPSDESVQDDRELQAWVREIFSKGFLNQESSGIPSSLETREALVQYVTMVIFTCSAKHAAVSAGQFDSCAWMPNLPPSMQLPPPTSKGLATCEGFIATLPPVNATCDVILALWLLSKEPGDQRPLGTYPDEHFTEEAPRRSIATFQSRLAQISRGIQERNQGLVLPYTYLDPPLIENSVSI
stoichiometry N (SEC): 2

Next, values leading:

enhanced inhibition of 327069 over 536924 (h15-LOX-2 [1]; ratio of IC50 values): ~10 fold
Ki (h15-LOX-2 [2]): 1200 nM
mode of inhibition (h15-LOX-2 [2]): mixed-type
substrate activity with h15-LOX-2 (h15-LOX-2 [3]): not substrates
change in H/D exchange vs h15-LOX-2 alone (h15-LOX-2 [4]): ≤ 20%
Molecule: FC(F)(F)c1ccc(CSc2nccn2-c2ccccc2)cc1 [Inhibitor 327069]

IC50 (h15-LOX-2 [1]): > 100000 nM
Molecule: Fc1ccc(CSc2nccn2-c2ccccc2)cc1 [analog 2, 2-((4-fluorobenzyl)thio)-1-phenyl-1H-imidazole]
